According to publication PMC9260667, “Thioredoxin Reductase Inhibitors as Potential Antitumors: Mercury Compounds Efficacy in Glioma Cells” (Frontiers in Molecular Biosciences, 2022):
Read-outs that look alike come from different tables or passages of the source.

Key:
Format in all cases: cell-based, mouse
GL261 cells [1] = experiment: cells; conditions: read-out: IC50 (MTT assay)
Protocol: The effect of TmHg and EtHg on the viability of GL261 and N9 cells was evaluated by the MTT assay as previously described ([Branco et al., 2014]). Briefly, cells (5 × 10^3) were seeded in 96-well plates (Nunc®) and incubated at 37°C for 24 h to allow proper adherence to plates. Afterwards, TmHg and EtHg (0, 0.5, 1, 2.5, and 5 μM) were added to wells. The same procedure was carried out to evaluate the effect of TMZ on the cellular viability of GL261 and DMSO at a final concentration of 0.1% was added as a control group. For co-exposure, the addition of the mercury compounds (EtHg—1 and 2 μM; TmHg—1 and 2 µM) under study followed the addition of TMZ (200 µM).
Cell viability was determined at the time of addition of the compounds (0 h) and after 24, 48, and 72 h of exposure by adding MTT to a final concentration of 400 μg/ml per well and incubating at 37°C for 4 h. After incubation, the medium was removed, and the formazan crystals were dissolved in a 4:1 DMSO/glycine buffer (pH 10.5). After shaking for 15 min, the viability was evaluated through the measurement of formazan absorption at 550 nm on a microplate reader (Zenyth 3100, Anthos Labtec Instruments) ([Branco et al., 2014]).
The IC50 is the concentration of a compound that decreases MTT reduction by 50% relative to the non-treated control at each time point.

GL261 cells [2] = experiment: cells; conditions: for increase of LDH release upon co-exposure with TMZ: GL261, 200 µM TMZ + 1 µM mercury compound; for EC50: GL261, 24 h exposure, read-out: EC50 (LDH assay)
Protocol: Cells were seeded in 96-well plates for 24 h prior to the addition of TmHg, EtHg (1 µM), TMZ (200, 400, and 800 µM), and for the 48 h end point the co-exposure of TMZ 200 µM with 1 µM EtHg and 1 µM TmHg. After exposure for 24 and 48 h, the supernatant was transferred to a fresh plate and a lysis buffer (10×) (Thermo Scientific™ Pierce™) was added to wells containing cells and incubated at 37°C for 45 min. LDH activity was evaluated using LDH Cytotoxicity Assay Kit from Thermo Scientific™ Pierce™ in the supernatant and lysate by the addition of lactate (substrate), a tetrazolium salt, and NAD^+ (cofactor) (Reaction Mixture), according to the manufacturer’s instructions. Following 30 min of incubation in the dark at room temperature, LDH release was assessed by measuring the absorbance at 490 and 680 nm in a microplate reader (Omega BMG LABTECH). The release of LDH was quantified as the ratio between the amount in the supernatant and total LDH (supernatant + lysate) ([Branco et al., 2017]).

Caspase-3 = Caspase-3 activity (DEVD-pNA assay) in lysates of exposed GL261 cells; conditions: GL261, 5 µM, 24 h
Protocol: Caspase-3 activity was determined by measuring the enzymatic cleavage of chromophore p-nitroanilide (pNA) from the substrate N-acetyl-Asp-Glu-Val-Asp-pNA (DEVD-pNA) ([Borralho et al., 2007]).
This activity was determined based on a proteolytic reaction previously described ([Borralho et al., 2007]) with some modifications. In this assay total cell lysates were used, where cells were exposed to the TmHg and EtHg (1; 2 and 5 µM) for 24 h. This reaction was performed in an isolation buffer, containing 100 μg of cytosolic protein of cellular lysates, 50 μM of DTT, and […] of DEVD-pNA (Sigma-Aldrich). Next, the reaction mixtures were incubated at 37°C for 3 h. Finally, the pNa formation was measured at 405 nm using a microplate reader (Zenyth 3100, Anthos Labtec Instruments) ([Borralho et al., 2007]).

GL261 cells [3] = experiment: Guava ViaCount assay, apoptotic cells; conditions: GL261, 24 and 48 h exposure
Protocol: The ViaCount Assay was used to distinguish viable and non-viable cells based on the differential permeability of two dyes in the Guava ViaCount Reagent. The membrane-permeant dye stains all nucleated cells, leaving the cellular debris unstained, while the membrane-impermeant dye brightly stains damaged cells, thus indicating apoptotic and dying cells. GL261 cells (6 × 10^4) were seeded for 24 h in 24-well plates and thereafter were exposed to the TmHg and EtHg for 24 and 48 h. Following treatment, cells were collected from plates along with cell culture supernatants and centrifuged for 5 min (650 g). Supernatants were discarded and the cells were resuspended in phosphate-buffered saline (PBS) containing 2% FBS. Subsequently, 15 μL of cell suspension were mixed with 135 μL of Guava ViaCount reagent and incubated for 5 min at room temperature. Sample acquisition and data analysis were performed with the Guava easyCyte 5HT flow cytometer (GuavaTechnologies, Inc., Hayward, CA, United States) using the ViaCount software module.

GL261 cells [4] = experiment: ROS production (H2DCFDA assay); conditions: GL261, 3 h exposure, 0.5-5 µM
Protocol: The assessment of general ROS production was based on the 2′,7′-dichlorodihydrofluorescein diacetate (H2DCFDA) assay ([Huang et al., 2014]).
Cells (8 × 10^4) were plated in black 96-well microplates and then incubated at 37°C for 24 h. Afterwards, the medium was removed, the cells were washed twice with PBS 1x, and culture media with DHCF-DA ([…]) was added to each well followed by a 40 min incubation at 37°C. After the incubation period, the DHCF-DA containing media was removed and the wells were washed twice with PBS 1x before being replenished with fresh medium. This was followed by exposure of cells to Hg compounds (EtHg and TmHg 0.5; 1, 2.5; and 5 µM) for 3 h using 1 mM H2O2 as a positive control. The fluorescence signal was read in a microplate reader (Zenyth 3100, Anthos Labtec Instruments) using 495 nm as the excitation wavelength and 529 nm as the emission wavelength.

SMILES	IC50 (GL261 cells [1]; GL261, 24 h exposure) [nM]	IC50 (GL261 cells [1]; GL261, 48 h exposure) [nM]	IC50 (GL261 cells [1]; GL261, 72 h exposure) [nM]	increase of LDH release upon co-exposure with TMZ (GL261 cells [2])	EC50 (GL261 cells [2]) [nM]	EC50 (LDH) fold lower in GL261 than in SH-SY5Y cells (GL261 cells [2]; GL261 versus previously reported SH-SY5Y value (Branco et al., 2017)) [fold]	increase of caspase-3 activity (Caspase-3)	increase in number of apoptotic cells compared to control (GL261 cells [3]) [%]	ROS production (GL261 cells [4])
C[CH2][Hg] [EtHg, ethylmercury]	2700 ± 300	2400 ± 400	970 ± 70	greater than 50%	1710 ± 400	3	up to 50%	> 50	concentration-dependent increase
C[CH2][Hg][S]c1ccccc1C(=O)[O-].[Na+] [TmHg, thimerosal]	2500 ± 400	2500 ± 400	920 ± 100	greater than 50%	1310 ± 200		up to 50%	> 50	concentration-dependent increase
